The values that follow come from patent publication US9265773B2, “Tetracyclic heterocycle compounds and methods of use thereof for the treatment of viral diseases” (priority 2011, dated 2016).

In one experiment the test system is HCV replicon genotype 1a. Briefly: microbe, parasite or virus in culture. It is filed as cell-based. Conditions: genotype 1a replicon cells, incubated 96 hours, NS3/4A ELISA readout.
The subject of another experiment is HCV replicon genotype 1b. Briefly: microbe, parasite or virus in culture. Type of experiment: cell-based. Conditions: genotype 1b replicon cells, incubated 96 hours, NS3/4A ELISA readout.

On to `CNC(=O)c1c(-c2ccc(F)cc2)oc2cc(N(C)S(C)(=O)=O)c(-c3ccc4c(n3)-c3cc5ccc(C#N)cc5n3CO4)cc12` [Compound 22], for which the IC50 in the experiment with HCV replicon genotype 1a (Hepatitis C virus, 96 h) worked out at 3.5 nM; in the experiment with HCV replicon genotype 1b (Hepatitis C virus, 96 h), 1.9 nM.
The like results for `CNC(=O)c1c(-c2ccc(F)cc2)oc2cc(N(C)S(C)(=O)=O)c(-c3ncc4c(n3)-c3cc5c(F)cccc5n3CCCO4)cc12` [Compound 40] were, in that order, 2 nM and 2.2 nM.
For `CNC(=O)c1c(-c2ccc(F)cc2)oc2cc(N(C)S(C)(=O)=O)c(-c3nc4c(cc3OC)OCn3c-4cc4ccccc43)cc12` [Compound 29] the same measures were 4.8 nM and 8 nM.
Regarding `CNC(=O)c1c(-c2ccc(F)cc2)oc2cc(N(C)S(C)(=O)=O)c(-c3ccc4c(n3)-c3cc5c(F)cccc5n3C(CO)(CO)O4)cc12` [Compound 94], the IC50 in the experiment on HCV replicon genotype 1a (Hepatitis C virus, 96 h) is 2.3 nM; in the experiment with HCV replicon genotype 1b (Hepatitis C virus, 96 h), 5.6 nM.
Turning to `CNC(=O)c1c(-c2ccc(F)cc2)oc2cc(N(C)S(C)(=O)=O)c(-c3ccc4c(n3)-c3cc5c(F)cccc5n3C(CO)O4)cc12` (centres unmarked) [Compound 87, 5-(11-fluoro-6-(hydroxymethyl)-6H-pyrido[2′,3′:5,6][1,3]oxazino[3,4-a]indol-2-yl)-2-(4-fluorophenyl)-N-methyl-6-(N-methylmethylsulfonamido)benzofuran-3-carboxamide], the IC50 was 3 nM in the experiment on HCV replicon genotype 1a (Hepatitis C virus, 96 h) and 3.3 nM with HCV replicon genotype 1b (Hepatitis C virus, 96 h).
With `CNC(=O)c1c(-c2ccc(F)cc2)oc2cc(N(C)S(C)(=O)=O)c(-c3ccc4c(n3)-c3nc5cccc(F)c5n3CO4)cc12` [Compound 140], the concentration for half-maximal inhibition (IC50) in the experiment with HCV replicon genotype 1a (Hepatitis C virus, 96 h) is 7.9 nM; with HCV replicon genotype 1b (Hepatitis C virus, 96 h) it was 5.9 nM.
In the case of `CNC(=O)c1c(-c2ccc(F)cc2)oc2cc(N(C)S(C)(=O)=O)c(-c3ccc4c(n3)-c3cc5c(F)cccc5n3C(COC(=O)[C@@H]3CCCN3C(=O)OC)O4)cc12` (some centres unmarked) [Compound 104], the IC50 in the experiment with HCV replicon genotype 1a (Hepatitis C virus, 96 h) came to 2.4 nM; in the experiment on HCV replicon genotype 1b (Hepatitis C virus, 96 h), 4.8 nM.
The like results for `CNC(=O)c1c(-c2ccc(F)cc2)oc2cc(N(C)S(C)(=O)=O)c(-c3ccc4c(n3)-c3cc5c(F)cccc5n3C(CNCCOC)O4)cc12` (centres unmarked) [Compound 120] were, in that order, 4.3 nM and 2.1 nM.
As for `CNC(=O)c1c(-c2ccc(F)cc2)oc2cc(N(C)S(C)(=O)=O)c(-c3cnc4c(c3)-c3cc5ccccc5n3CO4)cc12` [Compound 24], the IC50 in the experiment on HCV replicon genotype 1a (Hepatitis C virus, 96 h) is 3 nM; with HCV replicon genotype 1b (Hepatitis C virus, 96 h), 5.1 nM.
Consider `CNC(=O)c1c(-c2ccc(F)cc2)oc2cc(N(C)S(C)(=O)=O)c(-c3ccc4c(n3)-c3cc5c(CN)cccc5n3CO4)cc12` [Compound 68], for which the IC50 with HCV replicon genotype 1a (Hepatitis C virus, 96 h) worked out at 60 nM; with HCV replicon genotype 1b (Hepatitis C virus, 96 h), 19 nM.
Consider `CNC(=O)c1c(-c2ccc(F)cc2)oc2cc(N3CCCS3(=O)=O)c(-c3ccc4c(n3)-c3cc5c(F)cccc5n3CO4)cc12` [Compound 175, 6-(1,1-dioxidoisothiazolidin-2-yl)-5-(11-fluoro-6H-pyrido[2′,3′:5,6][1,3]oxazino[3,4-a]indol-2-yl)-2-(4-fluorophenyl)-N-methylbenzofuran-3-carboxamide], for which the IC50 was 5.3 nM in the experiment on HCV replicon genotype 1a (Hepatitis C virus, 96 h) and 3.1 nM in the experiment on HCV replicon genotype 1b (Hepatitis C virus, 96 h).
As for `CNC(=O)c1c(-c2ccc(F)cc2)oc2cc(N(C)S(C)(=O)=O)c(-c3ccc4c(c3)-c3nc5cccnc5n3CO4)cc12` [Compound 135], the 50% inhibitory concentration (IC50) with HCV replicon genotype 1a (Hepatitis C virus, 96 h) came out at 2.4 nM; in the experiment on HCV replicon genotype 1b (Hepatitis C virus, 96 h), 2.4 nM.
As to `CNC(=O)c1c(-c2ccc(F)cc2)oc2cc(N(C)S(C)(=O)=O)c(-c3ccc4c(c3)-c3[nH]c5ccccc5c3C(c3ccccc3)O4)cc12` (centres unmarked) [Compound 63, 2-(4-fluorophenyl)-N-methyl-6-(N-methylmethylsulfonamido)-5-(6-phenyl-6,11-dihydrochromeno[4,3-b]indol-2-yl)benzofuran-3-carboxamide], the IC50 in the experiment on HCV replicon genotype 1a (Hepatitis C virus, 96 h) was determined as 92 nM; with HCV replicon genotype 1b (Hepatitis C virus, 96 h), 83 nM.
Regarding `CNC(=O)c1c(-c2ccc(F)cc2F)oc2cc(N(C)S(C)(=O)=O)c(-c3ccc4c(n3)-c3cc5ccccc5n3CO4)cc12` [Compound 148], the IC50 worked out at 2.8 nM in the experiment on HCV replicon genotype 1a (Hepatitis C virus, 96 h) and 4.6 nM in the experiment with HCV replicon genotype 1b (Hepatitis C virus, 96 h).
In the case of `CN(O)C(=O)c1c(-c2ccc(F)cc2)oc2cc(N(C)S(C)(=O)=O)c(-c3ccc4c(n3)-c3cc5c(F)cccc5n3CO4)cc12` [Compound 155], the IC50 worked out at 7 nM in the experiment with HCV replicon genotype 1a (Hepatitis C virus, 96 h) and 17 nM with HCV replicon genotype 1b (Hepatitis C virus, 96 h).
Regarding `CNC(=O)c1c(-c2ccc(F)cc2)oc2cc(N(C)S(C)(=O)=O)c(-c3cc4c(c[n+]3[O-])OCn3c-4cc4c(F)cccc43)cc12` [Compound 74], the IC50 turned out to be 15 nM in the experiment on HCV replicon genotype 1a (Hepatitis C virus, 96 h) and 25 nM in the experiment with HCV replicon genotype 1b (Hepatitis C virus, 96 h).
Consider `CNC(=O)c1c(-c2ccc(F)cc2)oc2cc(N(C)S(C)(=O)=O)c(-c3ccc4c(n3)-c3cc5c(F)cccc5n3C(CCO)O4)cc12` (centres unmarked) [Compound 100, 5-(11-fluoro-6-(2-hydroxyethyl)-6H-pyrido[2′,3′:5,6][1,3]oxazino[3,4-a]indol-2-yl)-2-(4-fluorophenyl)-N-methyl-6-(N-methylmethylsulfonamido)benzofuran-3-carboxamide], for which the values for the IC50 in the experiment on HCV replicon genotype 1a and with HCV replicon genotype 1b were 3.3 nM and 3.6 nM, respectively.
Turning to `CNC(=O)c1c(-c2ccc(F)cc2)oc2cc(N(C)S(C)(=O)=O)c(-c3ccc4c(n3)-c3c(C#N)c5ccccc5n3CO4)cc12` [Compound 60, 5-(12-cyano-6H-pyrido[2′,3′:5,6][1,3]oxazino[3,4-a]indol-2-yl)-2-(4-fluorophenyl)-N-methyl-6-(N-methylmethylsulfonamido)benzofuran-3-carboxamide], the IC50 in the experiment with HCV replicon genotype 1a (Hepatitis C virus, 96 h) is 69 nM; with HCV replicon genotype 1b (Hepatitis C virus, 96 h), 31 nM.
In the case of `CNC(=O)c1c(-c2ccc(F)cc2)oc2cc(-n3cn[nH]c3=O)c(-c3ccc4c(n3)-c3cc5c(F)cccc5n3CO4)cc12` [Compound 164], the IC50 with HCV replicon genotype 1a (Hepatitis C virus, 96 h) amounted to 1.7 nM; in the experiment with HCV replicon genotype 1b (Hepatitis C virus, 96 h), 1 nM.
Consider `CNC(=O)c1c(-c2ccc(F)cc2)oc2cc(N(C)S(C)(=O)=O)c(-c3ccc4c(n3)-c3c(Cl)c5c(F)cccc5n3CO4)cc12` [Compound 56], for which the IC50 in the experiment with HCV replicon genotype 1a (Hepatitis C virus, 96 h) was 13 nM; in the experiment on HCV replicon genotype 1b (Hepatitis C virus, 96 h) it was 12 nM.
As for `CNC(=O)c1c(-c2ccc(F)cc2)oc2cc(N(C)S(C)(=O)=O)c(-c3ccc4c(n3)-c3cc5c(F)c(F)ccc5n3CO4)cc12` [Compound 28], the IC50 in the experiment on HCV replicon genotype 1a (Hepatitis C virus, 96 h) was determined as 2.1 nM; in the experiment with HCV replicon genotype 1b (Hepatitis C virus, 96 h), 4.5 nM.
`CNC(=O)c1c(-c2ccc(F)cc2)oc2cc(N(Cc3ccc(B(O)O)cc3)S(C)(=O)=O)c(-c3ccc4c(n3)-c3cc5c(F)cccc5n3CO4)cc12` [Compound 205, (4-((N-(5-(11-fluoro-6H-pyrido[2′,3′:5,6][1,3]oxazino[3,4-a]indol-2-yl)-2-(4-fluorophenyl)-3-(methylcarbamoyl)benzofuran-6-yl)methylsulfonamido)methyl)phenyl) boronic acid]: the IC50 with HCV replicon genotype 1a (Hepatitis C virus, 96 h) was determined as 14 nM; with HCV replicon genotype 1b (Hepatitis C virus, 96 h), 15 nM.
In the case of `CNC(=O)c1c(-c2ccc(F)cc2)oc2cc(N(CCF)S(C)(=O)=O)c(-c3ccc4c(n3)-c3cc5c(C#N)cccc5n3CO4)cc12` [Compound 191], the IC50 in the experiment on HCV replicon genotype 1a (Hepatitis C virus, 96 h) amounted to 1.7 nM; with HCV replicon genotype 1b (Hepatitis C virus, 96 h), 2.2 nM.
For `CN(c1cc2oc(-c3ccc(F)cc3)c(-c3ncn[nH]3)c2cc1-c1ccc2c(n1)-c1cc3c(F)cccc3n1CO2)S(C)(=O)=O` [Compound 160, N-(5-(11-fluoro-6H-pyrido[2′,3′:5,6][1,3]oxazino[3,4-a]indol-2-yl)-2-(4-fluorophenyl)-3-(1H-1,2,4-triazol-5-yl)benzofuran-6-yl)-N-methylmethanesulfonamide] the same measures were 19 nM and 16 nM.
For the molecule `CNC(=O)c1c(-c2ccc(F)cc2)oc2cc(N(C)S(C)(=O)=O)c(-c3ccc4c(n3)-c3cc5cccnc5n3CO4)cc12` [Compound 48, 2-(4-fluorophenyl)-N-methyl-6-(N-methylmethylsulfonamido)-5-(6H-pyrido[2,3-e]pyrido[3′,2′:4,5]pyrrolo[1,2-c][1,3]oxazin-2-yl)benzofuran-3-carboxamide], the IC50 in the experiment with HCV replicon genotype 1a (Hepatitis C virus, 96 h) is 2.2 nM; in the experiment on HCV replicon genotype 1b (Hepatitis C virus, 96 h), 2.6 nM.
Take `CNC(=O)c1c(-c2ccc(F)cc2)oc2cc(N(C)S(C)(=O)=O)c(-c3ccc4c(c3)-c3cc5ccccc5n3CC(NC3CCN(C)CC3)CO4)cc12` (centres unmarked) [Compound 82]: the IC50 in the experiment on HCV replicon genotype 1a (Hepatitis C virus, 96 h) was found to be 15 nM; with HCV replicon genotype 1b (Hepatitis C virus, 96 h), 11 nM.
For `CNC(=O)c1c(-c2ccc(F)cc2)oc2cc(N(C)S(C)(=O)=O)c(-c3ncc4c(n3)-c3cc5ccccc5n3CCCO4)cc12` [Compound 39] the same measures were 2.4 nM and 1.8 nM.
Consider `CNC(=O)c1c(-c2ccc(F)cc2)oc2cc(N(C)S(C)(=O)=O)c(-c3ccc4c(n3)-c3cc5cccc(CN(C)C)c5n3CO4)cc12` [Compound 71], for which the half-maximal inhibitory concentration (IC50) in the experiment on HCV replicon genotype 1a (Hepatitis C virus, 96 h) was found to be 13 nM; with HCV replicon genotype 1b (Hepatitis C virus, 96 h) it was 4.5 nM.
For `CNC(=O)c1c(-c2ccc(F)cc2)oc2cc(N(C)S(C)(=O)=O)c(-c3ncc4c(n3)-c3cc5c(F)c(F)ccc5n3CO4)cc12` [Compound 30] the same measures were 1 nM and 2.1 nM.
On to `CNC(=O)c1c(-c2ccc(F)cc2)oc2cc(N(C)S(C)(=O)=O)c(-c3ccc4c(n3)-c3cc5c(F)cccc5n3C(C(N)=O)O4)cc12` (centres unmarked) [Compound 106, 11-fluoro-2-(2-(4-fluorophenyl)-3-(methylcarbamoyl)-6-(N-methylmethylsulfonamido)benzofuran-5-yl)-6H-pyrido[2′,3′:5,6][1,3]oxazino[3,4-a]indole-6-carboxamide], for which the IC50 was determined as 5.5 nM in the experiment with HCV replicon genotype 1a and 2.4 nM in the experiment with HCV replicon genotype 1b.
For `CNC(=O)c1c(-c2ccc(F)cc2)oc2cc(N(C)S(C)(=O)=O)c(-c3ccc4c(n3)-c3cc5c(CN(C)C)cccc5n3CO4)cc12` [Compound 70], the IC50 in the experiment with HCV replicon genotype 1a (Hepatitis C virus, 96 h) turned out to be 71 nM; in the experiment with HCV replicon genotype 1b (Hepatitis C virus, 96 h), 18 nM.
On to `CNC(=O)c1c(-c2ccc(F)cc2)oc2cc(N3CCCC3=O)c(-c3ccc4c(n3)-c3cc5cc(F)ccc5n3CO4)cc12` [Compound 169], for which the IC50 is 14 nM in the experiment on HCV replicon genotype 1a (Hepatitis C virus, 96 h) and 5 nM in the experiment with HCV replicon genotype 1b (Hepatitis C virus, 96 h).
For the molecule `CNC(=O)c1c(-c2ccc(F)cc2)oc2cc(N(C)S(C)(=O)=O)c(-c3cc4c(cn3)OC(CO)n3c-4cc4c(F)cccc43)cc12` (centres unmarked) [Compound 90], the figures for the IC50 in the experiment with HCV replicon genotype 1a and with HCV replicon genotype 1b were 5.5 nM and 2.4 nM, respectively.
As to `CNC(=O)c1c(-c2ccc(F)cc2)oc2cc(N(CC(F)F)S(C)(=O)=O)c(-c3ccc4c(n3)-c3cc5ccccc5n3CO4)cc12` [Compound 185], the IC50 in the experiment with HCV replicon genotype 1a (Hepatitis C virus, 96 h) was found to be 7.9 nM; in the experiment on HCV replicon genotype 1b (Hepatitis C virus, 96 h), 16 nM.
